The test addresses ABCB1 (Homo sapiens, UniProt P08183). The test is described as follows: biochemical.

The structures appear in SMILES notation.

ABCB1, sequence (P08183 whole entry): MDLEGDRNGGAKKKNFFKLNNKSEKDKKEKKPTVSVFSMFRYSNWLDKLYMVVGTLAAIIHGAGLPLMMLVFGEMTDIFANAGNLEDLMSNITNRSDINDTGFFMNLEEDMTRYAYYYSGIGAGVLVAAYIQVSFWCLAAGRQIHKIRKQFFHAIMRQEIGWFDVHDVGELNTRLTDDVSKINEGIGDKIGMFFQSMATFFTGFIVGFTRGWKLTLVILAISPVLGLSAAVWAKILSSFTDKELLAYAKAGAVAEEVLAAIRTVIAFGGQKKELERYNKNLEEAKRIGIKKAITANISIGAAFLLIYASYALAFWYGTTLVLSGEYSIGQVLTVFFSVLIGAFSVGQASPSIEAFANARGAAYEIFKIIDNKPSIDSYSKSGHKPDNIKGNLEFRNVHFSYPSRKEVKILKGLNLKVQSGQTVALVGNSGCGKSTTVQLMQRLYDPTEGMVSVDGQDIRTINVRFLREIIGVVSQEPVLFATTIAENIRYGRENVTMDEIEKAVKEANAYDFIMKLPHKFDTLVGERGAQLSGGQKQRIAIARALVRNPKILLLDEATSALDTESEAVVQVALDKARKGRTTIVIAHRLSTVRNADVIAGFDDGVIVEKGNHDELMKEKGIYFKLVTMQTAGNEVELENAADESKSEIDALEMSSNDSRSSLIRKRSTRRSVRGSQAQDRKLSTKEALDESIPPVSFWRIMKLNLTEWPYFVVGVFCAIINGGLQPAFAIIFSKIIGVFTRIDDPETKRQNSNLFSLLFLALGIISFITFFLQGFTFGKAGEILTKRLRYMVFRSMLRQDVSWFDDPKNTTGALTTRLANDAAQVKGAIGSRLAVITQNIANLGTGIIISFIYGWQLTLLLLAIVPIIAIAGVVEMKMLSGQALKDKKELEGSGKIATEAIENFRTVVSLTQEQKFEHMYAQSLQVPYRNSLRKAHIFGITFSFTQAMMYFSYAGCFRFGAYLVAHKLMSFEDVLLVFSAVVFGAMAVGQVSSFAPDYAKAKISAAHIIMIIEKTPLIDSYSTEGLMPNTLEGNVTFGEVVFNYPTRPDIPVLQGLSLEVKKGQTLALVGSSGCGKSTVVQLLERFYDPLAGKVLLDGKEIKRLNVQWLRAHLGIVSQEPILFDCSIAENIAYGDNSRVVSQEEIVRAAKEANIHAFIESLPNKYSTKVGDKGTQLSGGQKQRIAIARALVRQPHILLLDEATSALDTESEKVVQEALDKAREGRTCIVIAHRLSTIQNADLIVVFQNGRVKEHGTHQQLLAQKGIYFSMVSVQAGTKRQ

Consider `CCn1cc(-c2ccnc3[nH]c(-c4cccc(CN(C)C)c4)cc23)c(-c2ccc(NC(=O)N(C)C)cc2)n1` [GSK-1070916], for which the EC50 was 830 nM.

(Values after article PMC7841342, “Elevated ABCB1 Expression Confers Acquired Resistance to Aurora Kinase Inhibitor GSK-1070916 in Cancer Cells” (Frontiers in Pharmacology, 2021).)
